Drawing on PubChem BioAssay (NCI), this text covers GI50 and TGI for eight molecules.

Common to all, as to assay: inhibition of tumour cell growth, NCI panel, 48 h
Assay [1] concerns OVCAR-4 ovarian.
For assay [2], the system named is CCRF-CEM leukemia.
In assay [3] the test system is U251 CNS.
The subject of assay [4] is SNB-75 CNS.
The subject of assay [5] is EKVX NSCLC.
Assay [6] has as its system OVCAR-3 ovarian.
Assay [7] relates to SF-268 CNS.
Assay [8] deals with RPMI-8226 leukemia.
Assay [9] has as its system OVCAR-5 ovarian.
In assay [10] the test system is HOP-62 NSCLC.

The structures appear in SMILES notation.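 Each compound was tested at five concentrations against cells in 96-well plates for 48 hours. Here, GI50 denotes the concentration required for 50% inhibition of growth. TGI denotes the concentration required for complete inhibition of growth.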

In the case of `CN1CCN(c2ccc(NC(=O)c3nc4ccc5[nH]ncc5c4c4c3CCCC4)cc2C(F)(F)F)CC1`, the GI50 in assay [1] is 1.45 µM; in assay [2], 1.07 µM; in assay [3], 0.926 µM; in assay [4], 5.5 µM; in assay [5] it was 1.44 µM; in assay [6], 0.939 µM. The GI50 in assay [7] is 3.89 µM; in assay [8], 0.966 µM; in assay [9], 1.5 µM; in assay [10], 0.918 µM. Also, the TGI was found to be 6.81 µM in assay [1]; 3.33 µM in assay [2]; 1.77 µM in assay [3]; 12.1 µM in assay [4]; 8.62 µM in assay [5]; 1.81 µM in assay [6]. Besides, the TGI is 19.3 µM in assay [7], 2.3 µM in assay [8], 8.39 µM in assay [9] and 1.89 µM in assay [10].
For `OC1c2ccccc2C2(O)C1C(c1ccccc1)C(c1ccccc1)C2(O)c1ccccc1` (stereo not given), the TGI in assay [1] was > 100 µM; in assay [2] it was > 100 µM; in [3], 23.1 µM; in [4] it was 46.2 µM; in assay [5], 70.8 µM; in assay [6], 26.9 µM. In addition, the TGI amounted to 68.8 µM in assay [7], 65.1 µM in assay [8], 26.7 µM in assay [9] and 28.2 µM in assay [10].
As for `Oc1ccc(C(c2ccc(O)cc2)c2ccc(Cl)cn2)cc1`, the GI50 was 0.0243 µM in assay [1]; 14.9 µM in assay [2]; 42.3 µM in assay [3]; 0.17 µM in assay [4]; 0.349 µM in assay [5]; 0.0266 µM in assay [6]. Further, the GI50 is 25.9 µM in [7], 21.1 µM in assay [8], 17.6 µM in [9] and 33.7 µM in assay [10]. For the same molecule, the TGI was 0.0598 µM in assay [1]; > 100 µM in assay [2]; > 100 µM in assay [3]; 0.451 µM in assay [4]; 6.59 µM in [5]; 0.0769 µM in assay [6]. Further, the TGI in assay [7] is > 100 µM; in assay [8], > 84.8 µM; in [9], > 100 µM; in [10], > 100 µM.
`FC(F)(F)c1cc(-c2nnc3n2N=C(N2CCCC2)CS3)cc(C(F)(F)F)c1`: the GI50 in [1] is > 50 µM; in assay [2], > 50 µM; in assay [3] it was 18.1 µM; in assay [4], 7.12 µM; in assay [5], > 50 µM; in [6] it was 5.27 µM. Moreover, the GI50 is > 50 µM in assay [7], > 50 µM in [8], > 50 µM in assay [9] and 16.7 µM in assay [10]. In addition, the TGI is > 50 µM in [1]; > 50 µM in assay [2]; > 50 µM in [3]; 24.4 µM in [4]; > 50 µM in assay [5]; 28.8 µM in assay [6]. The TGI in assay [7], in [8], in [9] and in assay [10] was > 50 µM each time.
`C=CCN(/C=C1/C(=O)O[C@H](COC)[C@@]2(C)C1=C(O)C(=O)C1=C2[C@H](OC(C)=O)C[C@]2(C)C(=O)CC[C@@H]12)CC=C`: the GI50 in [1] was 2.72 µM; in [2] it was 0.709 µM; in [3], 2.12 µM; in assay [4] it was 0.0364 µM; in assay [5] it was 0.828 µM; in assay [6], 0.562 µM. Also, the GI50 in assay [7] was 1.71 µM; in assay [8] it was 2 µM; in assay [9], 1.08 µM; in [10] it was 2.04 µM. Moreover, the TGI is > 10 µM in assay [1]; > 6.51 µM in [2]; > 10 µM in assay [3]; 0.816 µM in [4]; > 10 µM in assay [5]; > 10 µM in assay [6]. For the same molecule, the TGI in assay [7], in assay [8], in assay [9] and in [10] was > 10 µM throughout.
In the case of `COc1ccccc1N=C(N)N/N=C/c1c[nH]c2ccccc12`, the TGI was determined as 31.3 µM in assay [1]; 31.2 µM in assay [2]; 24.2 µM in [3]; 25.4 µM in [4]; 23.2 µM in assay [5]; 25.7 µM in assay [6]. Also, the TGI in assay [7] turned out to be 29.1 µM; in assay [8], 32.1 µM; in assay [9] it was 26.9 µM; in [10] it was 30.2 µM.
With `CCOC(=O)C1=C(c2ccccc2)N(C)c2ccccc2S1`, the TGI in assay [1] was > 100 µM; in [2], > 100 µM; in assay [3] it was 49.1 µM; in [4], > 100 µM; in assay [5], > 100 µM; in [6], > 100 µM. In addition, the TGI in [7] was 97.3 µM; in assay [8] it was 66.5 µM; in assay [9] it was > 100 µM; in [10] it was > 100 µM.
`COc1ccc2c(c1)/C(=C\c1cccnc1)C(=O)N2`: the GI50 in assay [1] was 38.2 µM; in assay [2], 10.8 µM; in assay [3], 7.84 µM; in [4] it was 27.9 µM; in [5], 3.79 µM; in assay [6], 40.5 µM. Further, the GI50 in [7] was 12.9 µM; in assay [8], 18.6 µM; in assay [9], 24.3 µM; in assay [10] it was 23 µM. Further, the TGI in [1] was > 100 µM; in [2], > 100 µM; in assay [3], 47.7 µM; in assay [4], 68.1 µM; in [5], 25.2 µM; in assay [6] it was > 100 µM. In addition, the TGI in [7] was determined as 37 µM; in [8], 76.7 µM; in [9], 78.5 µM; in [10] it was 60.3 µM.
